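How tested: cells in 96-well plates exposed to compound for 48 hours at five concentrations. GI50 is the concentration that inhibits growth by half. The concentration for full growth arrest is given as TGI.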
Columns and labels:
Assay in all cases: NCI anticancer screen, dose series, 48 h
[1] = tested on: BT-549 breast
[2] = tested on: T-47D breast
[3] = tested on: DMS 114 small cell lung
[4] = tested on: DMS 273 small cell lung
[5] = tested on: KM20L2 colon
[6] = tested on: SNB-78 CNS
[7] = tested on: XF 498 CNS
[8] = tested on: RXF-631 renal
[9] = tested on: MDA-N

Row | SMILES | GI50 [1] [µM] | TGI [1] [µM] | GI50 [2] [µM] | TGI [2] [µM] | TGI [3] [µM] | TGI [5] [µM] | also measured
1 | COc1ccc(OC)c2c1[nH]c(=O)c1c3ncccc3cn21 | > 100 | > 100 | 3.54 | > 100 |  |  | 
2 | Cc1cn2c(/C=N/N=C(N)N)c(-c3cccs3)nc2s1 | 8.07 | 22.8 | 5.51 | 25.9 |  |  | 
3 | Cc1c(C(=O)/C=C/c2ccc(N(C)C)cc2)c(=O)n(-c2ccccc2)n1C |  |  |  |  | > 100 | > 100 | TGI [4]: > 100 µM; TGI [6]: > 100 µM; TGI [7]: > 100 µM
4 | C[N+](C)(C)CC(=O)N/N=C(\C(=O)NC1=C(Cl)C(=O)c2ccccc2C1=O)C(C#N)c1csc(-c2ccc([N+](=O)[O-])cc2)n1 (stereo not given) |  |  |  |  | > 100 | > 100 | TGI [4]: > 100 µM; TGI [8]: > 100 µM; TGI [6]: > 100 µM; TGI [7]: > 100 µM
5 | COc1cc(Nc2nc3ccccc3cc2C(=O)Nc2ccc(F)c(F)c2)cc(OC)c1OC | 2.48 | 6.54 | 1.84 | 6.39 |  |  | 
6 | CCc1cccc(CC)c1NC(=O)C1=C(C)NC(C)=C(C(=O)Nc2c(CC)cccc2CC)C1c1ccc([N+](=O)[O-])cc1 |  |  |  |  | 52.4 | > 100 | TGI [7]: 39.5 µM
7 | O=c1c2cccc3cccc(c4n1CCN=4)c32 |  |  |  |  | > 100 | > 100 | TGI [4]: > 100 µM; TGI [6]: > 100 µM; TGI [7]: > 100 µM
8 | COc1ccc(OC)c(-c2cc(-c3ccc(Cl)cc3)nn2-c2ccc(S(=O)(=O)NC(C)=O)cc2)c1 | 4.26 | 14.7 | 13.1 | 36.1 |  |  | 
9 | SCCSCCCSCCS |  | > 100 |  | > 100 |  |  | TGI [9]: > 100 µM
10 | CC(C)(C)[Si](C)(C)OC1[C@@H](O[Si](C)(C)C(C)(C)C)[C@@H](CNC(=O)NC(=O)CCl)O[C@H]1n1cnc2c(NC(=O)Nc3ccccc3)ncnc21 (stereo not given in full) | 0.962 | 1.79 | 1.01 | 2.17 |  |  | 
11 | COc1ccc(C(=O)c2cc3c(N)c(C(=O)Nc4ccc(C)cc4)sc3nc2C)cc1 | 4.83 | 41.8 | 4.78 | 91.7 |  |  | 
12 | COc1cc(CNc2ccccc2C(=O)N2CCN(C(=O)c3cc(-c4cc(OC)c(OC)c(OC)c4)n4nc(-c5ccccc5)cc4n3)CC2)cc(OC)c1OC | 3.27 | 49.1 |  |  |  |  | 
13 | O=C1/C(=C\c2ccccn2)c2ccccc2N1c1c(Cl)cccc1Cl | 2.21 | 4.88 | 2.6 | 9.66 |  |  | 
14 | CCc1cc(CCC(=O)Nc2c(C)cccc2C)[nH]n1 |  |  |  |  |  | > 100 | TGI [4]: > 100 µM; TGI [8]: > 100 µM; TGI [6]: > 100 µM; TGI [7]: > 100 µM
15 | O=Cc1ccc(-c2ccc(-c3nc4ccccc4o3)cc2)o1 | 35.4 | > 100 | 34.8 | > 100 |  |  | 
16 | O=c1c(Cl)c(Cl)c(=O)c2sc3cc(Cl)ccc3[nH]c1=2 |  |  |  | > 100 |  |  | 
17 | CCC(CNc1cc(OC)cc2cccnc12)NC1CCCCC1 (stereo not given) |  |  | 17.2 | 64.3 |  |  | 
18 | CN(C)C=C1C(Cl)=C(C=O)CC(C=O)=C1Cl |  |  |  |  | 26.1 | 41 | TGI [4]: 29 µM
19 | C=C(Nc1ccc([N+](=O)[O-])cc1[N+](=O)[O-])c1c/c(=N\NC(N)=S)c2ccccc2o1 |  | > 100 |  |  |  |  | TGI [9]: > 100 µM

Row | SMILES | GI50 [1] [µM] | TGI [1] [µM] | GI50 [2] [µM] | TGI [2] [µM] | TGI [3] [µM] | TGI [5] [µM] | also measured
20 | COc1ccc(C2SCC(=O)N2NC(=O)c2ccc(NC(C)=O)cc2)cc1 (stereo not given) |  | > 100 |  | > 100 |  |  | TGI [9]: > 100 µM
21 | Cc1nc(N2CCC3(CC2)CO[C@@H](C)[C@H]3N)c(CO)nc1Sc1ccnc(N)c1Cl | 6.56 | > 100 | 32.4 | > 100 |  |  | 
22 | Cc1cc(Cl)ccc1NC(=O)C(=O)C(C(=O)c1ccc2ccccc2c1)C1OC(=O)c2ccccc21 (stereo not given) |  |  |  |  | 23.7 | 61.7 | TGI [4]: 37.1 µM; TGI [8]: 31.2 µM; TGI [6]: 49.9 µM
23 | CCOC(=N)CC(=O)c1ccccc1 |  |  |  |  | > 100 | > 100 | TGI [4]: > 100 µM; TGI [6]: > 100 µM; TGI [7]: > 100 µM
24 | CCCN(CCCC(NC(C)=O)C(=O)NCc1ccccc1)C(=O)NCCCl (stereo not given) |  |  |  |  | > 100 | > 100 | TGI [4]: > 100 µM; TGI [8]: > 100 µM; TGI [7]: > 100 µM
25 | COc1cc(CNC2c3cc4c(cc3C(c3cc(OC)c(OC)c(OC)c3)[C@H]3C(=O)OCC23)OCO4)cc(OC)c1OC (stereo not given in full) |  |  |  |  | 0.444 | 0.359 | TGI [7]: 8.07 µM
26 | Cc1cc(C)c(Cn2cnc3c(Cl)ncnc32)c(C)c1CCl | > 100 | > 100 | 24.9 | 95.3 |  |  | 
27 | COc1cccc(NC(=O)c2sc3nc4c(cc3c2N)C(=O)CCC4)c1 | 0.282 | > 90.5 |  |  |  |  | 
28 | CCCCCCCCCCCCCCCCCC(=O)OCC(COC(=O)CCCN)OC(=O)CCCN (stereo not given) |  |  |  | 40 |  |  | TGI [9]: 39.4 µM
29 | CSc1n[n+]2c(s1)SCCC2 |  |  |  |  | > 100 |  | TGI [4]: > 100 µM; TGI [8]: > 100 µM; TGI [6]: > 100 µM; TGI [7]: > 100 µM
30 | NC(=O)c1cccc(Nc2nccc(Nc3cccc4[nH]ncc34)n2)c1 | 9.4 | > 25 | 2.99 | > 17.9 |  |  | 
31 | CN1C(=O)N[C@H]2[C@@H]3NC(=O)c4ccc(Br)n4[C@@H]3C[C@]21O | 0.0739 | 0.405 | 0.0313 | 0.23 |  |  | 
32 | COc1ccc(/C=N\Nc2ccc([N+](=O)[O-])cn2)cc1OC | > 100 | > 100 |  |  |  |  | 
33 | CC(=O)On1c(-c2ccccc2-c2nc3ccccc3n2OC(C)=O)nc2ccccc21 |  | > 100 |  | > 100 |  |  | TGI [9]: > 100 µM
34 | N#C/C(=C1\SC(N=Nc2ccccc2)C(=O)N1c1ccccc1)c1nc2ccccc2[nH]1 (stereo not given) |  |  |  |  | > 100 | > 100 | TGI [4]: > 100 µM; TGI [6]: > 100 µM; TGI [7]: 85 µM
35 | CC(=O)[CH-]C(=O)c1ccccc1.CC(=O)[CH-]C(=O)c1ccccc1.CCOCC[O-].CCOCC[O-].[Ti+4] |  |  |  |  |  | > 100 | GI50 [5]: 19.6 µM
36 | Cc1ccc(S(=O)(=O)NNC(=O)c2cc(C)c(C)cc2N)cc1 |  | > 100 |  | > 100 |  |  | TGI [9]: > 100 µM
37 | O=C(Nc1cccc(O)c1)C(=O)C(C(=O)c1ccc(Cl)c(Cl)c1)C1OC(=O)c2ccccc21 (stereo not given) |  |  |  |  | 33.3 | 37.3 | TGI [4]: 39.5 µM; TGI [6]: > 100 µM; TGI [7]: 25.6 µM
